Assay results as given in US20250195496A1, “AVPR1A BLOCKADE TO REDUCE SOCIAL ISOLATION-INDUCED ANXIETY IN FEMALES” (THE TRUSTEES OF COLUMBIA UNIVERSITY IN THE CITY OF NEW YORK, priority 2022, published 2025).
Entries after “also recorded” stand apart in the source; their conditions may differ. Bridge positions count the residues as written; N and C are the ends. Ends that are not written are not given here.

Tests used:
[1] = test system: WT mice; experiment: Marble burying assay after i.p. antagonist injection; type: in vivo, mouse; conditions: 2 mg/kg
Description: Chronic social Isolation: Mice were singly housed at 5 weeks of age for 7 weeks in standard cages. Control groups included mice isolated at 8 weeks of age for 2 weeks, or at 8 weeks of age for 7 weeks. An additional control group included mice socially isolated at 8 weeks of age for 7 weeks and regrouped at 15 weeks for 3 weeks.
All behavioral assays were performed after lights out (7 pm).
Marble burying: Standard cages were filled with fresh bedding to a depth of 2.5 in and 15 marbles were evenly spaced across the bedding. […] At the end of the assay, the number of marbles buried was estimated visually. A marble was considered buried if at least ¾ of its surface was covered by the bedding.
Peripheral antagonist injections: Injections of SRX246 (AVPR1A antagonist, 2 mg/kg, i.p.), SR49059 (AVPR1A antagonist, 2 mg/kg, i.p.), SSR149415 (AVPR1B antagonist, 2 mg/kg, i.p.), d(CH2)5Tyr(Me)-[Orn8]-vasotocin (Oxytocin receptor antagonist, 2 mg/kg, i.p.), or 1% DMSO (Sigma Aldrich, i.p.) were performed in WT adults.

[2] = test system: AVPR1A^CeA neurons; experiment: Chemogenetic activation of AVPR1A^CeA neurons by CNO (cFos smFISH); type: in vivo, mouse; conditions: Avpr1a-Cre mice injected with the DREADD-Gq virus; single injection 1.5 mg/kg, i.p.
Description: (A) Heat map for the expression of the 300 top genes at […], 7, 13 and 22 weeks of age (n=3). […] (D) Vgat and AVPR1A expression detected with smFISH in a coronal section of the CeA at bregma-1.34 mm. (E) Quantification of AVPR1A^CeA neurons. (F) AVPR1A-Cre::tdTomato reporter expression in a coronal section of the CeA at bregma-1.34 mm. (G-L) Chemogenetic activation of AVPR1A^CeA neurons. (G) Schematic of bilateral injections of AAV-DIO-DREADD-Gq-mCherry (closed circles) vs. AAV-DIO-mCherry controls (open circles) in the CeA of Avpr1a-Cre adult mice. (H) Expression of the viral mCherry reporter in the CeA. High-magnification image showing Avpr1a and cFos expression detected with smFISH 1 h after CNO injections in mice injected with control (lower panel) and DREADD-Gq-mCherry (upper panel) AAVs. (I-L) Effects of CNO injections on marble burying (I), time spent in the open arms of the EPM (J), time spent in the center of the open field (K), and distance traveled in the open field (L) in mice injected with control and DREADD-Gq AAVs (n=6-9). Data are presented as means+/−SEM in E.
We utilized a chemogenetic approach to overcome this technical issue that prevented direct comparisons of males and females. […]

[3] = test system: central AVPR1A circuits; experiment: Food intake following amygdala injection of AVP; type: in vivo, mouse
[4] = test system: male rats; conditions: males; AVP delivered into the CeA (Hernandez et al., 2016; Hernandez-Perez et al., 2018); cited from earlier work
[5] = test system: WT and Avpr1a-/- females; experiment: Marble burying after bilateral intra-CeA AVP injection; type: in vivo, mouse; conditions: 1 ng AVP bilateral
Description: For cannulations, ophthalmic ointment and analgesics were administered (buprenorphine, 0.1 mg/kg or buprenorphine Ethiqa XR, 3.25 mg/kg, and carprofen, 5 mg/kg, subcutaneous). Two cannulas (Model C317GS, Plastics One) were placed by drilling holes at the following coordinates: +/−2.4 mm lateral, −1.4 mm anteroposterior and −4.6 mm ventral from Bregma. Implants were secured by dental cement and protected with a cap (Model C317DCS, Plastics One).
Marble burying: Standard cages were filled with fresh bedding to a depth of 2.5 in and 15 marbles were evenly spaced across the bedding. Animals were placed in the cage for 30 min and allowed to ambulate freely. At the end of the assay, the number of marbles buried was estimated visually. A marble was considered buried if at least ¾ of its surface was covered by the bedding.
Intra-amygdala AVP injections: Prior to marble burying, adult WT and Avpr1a^−/− females were bilaterally injected with 1 ng of AVP or 0.9% saline via in-dwelling cannulas using a Hamilton syringe (Hamilton 7635-01) connected to an injector (Model C317IS, Plastics One).

In the case of `COc1ccc(S(=O)(=O)N2C(=O)[C@@](c3ccccc3OC)(N3C[C@H](O)C[C@H]3C(=O)N(C)C)c3cc(Cl)ccc32)c(OC)c1` [AVPR1B antagonist], the “marble burying (15 min)” value ([1]; female mice exposed to CSIS) is reported as “did not affect behavior in females or males” and the “marble burying (15 min)” value ([1]; male mice exposed to CSIS) is reported as “did not affect behavior in females or males”.

For `C[N+]1([O-])CCN(C2=Nc3cc(Cl)ccc3Nc3ccccc32)CC1` [CNO, clozapine-N-oxide], the “activation of AVPR1A^CeA neurons” value [2] was “acutely activated AVPR1A^CeA neurons”.

In the case of `COc1ccc(S(=O)(=O)N2c3ccc(Cl)cc3[C@](O)(c3ccccc3Cl)[C@@H]2C(=O)N2CCC[C@H]2C(N)=O)cc1OC` [SR49059], the “food intake: blockade of the anorexigenic effects of AVP” value ([3]; AVP (0.3 ng) injected in the amygdala, peripheral injection of antagonist (Manning compound; SR49059 2 mg/kg)) is reported as “does not restore food intake”, the marble burying ([1]; female WT mice exposed to >7 weeks CSIS starting at 5 or 8 weeks of age) is reported as “had no effect” and the marble burying ([1]; male WT mice exposed to >7 weeks CSIS starting at 5 or 8 weeks of age) is reported as “had no effect”.

In the case of “AVP: AVP (vasopressin), the AVPR1A ligand, injected into the amygdala/CeA (CYFQNCPRG-NH2; disulfide 1-6; UniProt P01185 20-28, looked up)”, the “effect on food intake” value ([3]; AVP 0.3 ng injected in the amygdala) is listed as “anorexigenic effects”, the anxiety-related behaviors [4] is listed as “can induce anxiety-like behaviors in males; also recorded: increase anxiety-related behaviors in males; also recorded: elicited anxiety-related behaviors” and the “marble burying / anxiety behavior” value ([5]; global knockout Avpr1a-/- females) is listed as “had no effect”. The “marble burying / anxiety behavior” value ([5]; group housed WT females) was “trigger anxiety behavior in WT females; also recorded: increased marble burying”.

In the case of “d(CH2)5Tyr(Me)-[Orn8]-vasotocin [OXR antagonist]”, the “marble burying (15 min)” value ([1]; female mice exposed to CSIS) is reported as “did not affect behavior in females or males” and the “marble burying (15 min)” value ([1]; male mice exposed to CSIS) is reported as “did not affect behavior in females or males”.
